Measurements reported in US9271978B2 (Zenith Epigenetics Corp., priority 2012, dated 2016).

Columns and labels:
c-myc = assay: Inhibition of c-myc expression in MV4-11 cells (mRNA, real-time PCR); type: cell-based; set-up: key: Active: Compounds with an IC50 value less than 30 μM were deemed to be active.; Not Active: Compounds with an IC50 value less than 30 μM were deemed to be active; conditions: Human AML MV4-11 cells, 3 h incubation
How it was run: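 Duplex RT-qPCR of c-myc against cyclophilin cDNA gave IC50 from a dose–response curve. Input was isolated mRNA from 2.5×10^4 MV4-11 cells after 3 h exposure at 37 °C to compound or 0.1% DMSO vehicle.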

[1] = molecular target: T1, Brd4 bromodomain 1 (BRD4(1)) (Homo sapiens, UniProt O60885); assay: Inhibition of tetra-acetylated histone H4 binding to Brd4 bromodomain 1 (TR-FRET); set-up: key: Active: Compounds with an IC50 value less than 30 μM were deemed to be active.; Not Active: Compounds with an IC50 value less than 30 μM were deemed to be active; conditions: tetra-acetylated histone H4 peptide, active = IC50 <30 μM
T1 construct: Illustrative results with the first bromodomain of Brd4; made in house; host or cells: E. coli BL21 (DE3)
How it was run: (§1)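 IC50 values come from dose-response curves of the 665 nm to 620 nm TR-FRET signal decrease, measured after 2 h at room temperature. Reactions contained 200 nM E. coli-expressed His-tagged bromodomain, 25-50 nM biotinylated tetra-acetylated H4 peptide, Eu-streptavidin plus XL665 anti-His antibody, with 30 mM HEPES pH 7.4, 320 mM KF and 0.2% DMSO.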

[2] = system: human AML MV-4-11 (CRL-9591) cells; assay: Inhibition of cell proliferation in MV4-11 cells; type: cell-based; set-up: key: Active: Compounds with an IC50 value less than 30 μM were deemed to be active.; Not Active: Compounds with an IC50 value less than 30 μM were deemed to be active; conditions: human AML MV-4-11 cells, 72 h; active = IC50 <30 μM
How it was run: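 IC50 values come from blank-corrected proliferation relative to DMSO controls, read as 490 nm absorbance 3–4 h after CellTiter Aqueous One addition. Before that, cells seeded at 5×10^4/well were exposed for 72 h (37° C, 5% CO2) to triplicate two-fold compound dilutions spanning 30–0.2 μM.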

hIL-6 mRNA = assay: Inhibition of hIL-6 mRNA transcription in U937 cells; type: cell-based, human; set-up: key: Active: Compounds with an IC50 value less than 30 μM were deemed to be active.; Not Active: Compounds with an IC50 value less than 30 μM were deemed to be active; conditions: LPS stimulation, active = IC50 <30 μM
How it was run: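 Readout is one-step real-time PCR of hIL-6 mRNA, normalized to an internal control and given as fold induction versus control. Cells: PMA (60 ng/mL, 3 days)-differentiated U937 macrophages, compound added 1 h before 1 ug/mL LPS, harvested after 3 h at 37° C.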

[3] = molecular target: T2, second bromodomain of Brd2 (BRD2(2)) (Homo sapiens, UniProt P25440); assay: Inhibition of tetra-acetylated histone H4 binding to Brd2 bromodomain 2 (TR-FRET); set-up: key: Active: Compounds with an IC50 value less than 30 μM were deemed to be active.; Not Active: Compounds with an IC50 value less than 30 μM were deemed to be active; conditions: tetra-acetylated histone H4 peptide, active = IC50 <30 μM
T2 construct: made in house; host or cells: E. coli BL21 (DE3)
How it was run: as §1

hIL-17 mRNA = assay: Inhibition of hIL-17 mRNA transcription in human peripheral blood mononuclear cells; type: cell-based; set-up: key: Active: Compounds with an IC50 value less than 30 μM were deemed to be active.; Not Active: Compounds with an IC50 value less than 30 μM were deemed to be active; conditions: OKT3 antibody stimulation
Protocol: In this example, hIL-17 mRNA in human peripheral blood mononuclear cells was quantitated to measure the transcriptional inhibition of hIL-17 when treated with a compound of the invention.
Human peripheral blood mononuclear cells were plated (2.0×10^5 cells per well) in a 96-well plate in 45 μL OpTimizer T Cell expansion media containing 20 ng/ml IL-2 and penicillin/streptomycin. The cells were treated with the test compound (45 μL. at 2× concentration), and then the cells were incubated at 37° C. for 1 h before addition of 10× stock OKT3 antibody at 10 ug/ml in media. Cells were incubated at 37° C. for 3 h before the cells were harvested. At time of harvest, cells were centrifuged (800 rpm, 5 min). Spent media was removed and cell lysis solution (70 μL) was added the cells in each well and incubated for 5-10 min at room temperature, to allow for complete cell lysis and detachment. mRNA was then prepared using the “mRNA Catcher PLUS plate” (Invitrogen), according to the protocol supplied. After the last wash, as much wash buffer as possible was aspirated without allowing the wells to dry. Elution buffer (E3, 70 μL) was then added to each well. mRNA was then eluted by incubating the mRNA Catcher PLUS plate with Elution Buffer for 5 min at 68° C. and then immediately placing the plate on ice.
The eluted mRNA isolated was then used in a one-step quantitative real-time PCR reaction, using components of the Ultra Sense Kit together with Applied Biosystems primer-probe mixes. Real-time PCR data was analyzed, normalizing the Ct values for hIL-17 to an internal control, prior to determining the fold induction of each unknown sample, relative to the control.

T2 sequence (P25440 344-453 limits assumed): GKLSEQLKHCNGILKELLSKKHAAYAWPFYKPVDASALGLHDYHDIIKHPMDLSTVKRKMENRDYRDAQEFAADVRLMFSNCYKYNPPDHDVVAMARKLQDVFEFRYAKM

COc1cc(-c2nn(Cc3ccccc3)c(=O)c3ccccc23)ccc1O [Example 165, 2-Benzyl-4-(4-hydroxy-3-methoxyphenyl)-2H-phthalazin-1-one]
c-myc activity (IC50 <30 μM) (c-myc): Active | FRET activity (IC50 <30 μM) BRD4(1) [1]: Active | Cell Proliferation activity (IC50 <30 μM) [2]: Active | IL-6 activity (IC50 <30 μM) (hIL-6 mRNA): Active | melting point: 197 to 200 °C | FRET activity (IC50 <30 μM) BRD2(2) [3]: Active

Cc1noc(C)c1-c1cn(Cc2ccccc2)c(=O)c2ccccc12 [Example 167, 2-Benzyl-4-(3,5-dimethylisoxazol-4-yl)isoquinolin-1(2H)-one]
c-myc activity (IC50 <30 μM) (c-myc): Not Active | FRET activity (IC50 <30 μM) BRD4(1) [1]: Active | Cell Proliferation activity (IC50 <30 μM) [2]: Active | IL-6 activity (IC50 <30 μM) (hIL-6 mRNA): Active | melting point: 139 to 141 °C | FRET activity (IC50 <30 μM) BRD2(2) [3]: Active

COc1cc(-c2cn(Cc3ccccc3)c(=O)c3ccccc23)cc(OC)c1OC [Example 168, 2-Benzyl-4-(3,4,5-trimethoxyphenyl)isoquinolin-1(2H)-one]
c-myc activity (IC50 <30 μM) (c-myc): Not Active | FRET activity (IC50 <30 μM) BRD4(1) [1]: Not Active | Cell Proliferation activity (IC50 <30 μM) [2]: Active | IL-6 activity (IC50 <30 μM) (hIL-6 mRNA): Not Active | melting point: 166 to 168 °C | FRET activity (IC50 <30 μM) BRD2(2) [3]: Active

COc1cc(-c2cn(Cc3ccccc3)c(=O)c3ccccc23)ccc1O [Example 169, 2-Benzyl-4-(4-hydroxy-3-methoxyphenyl)isoquinolin-1(2H)-one]
c-myc activity (IC50 <30 μM) (c-myc): Active | FRET activity (IC50 <30 μM) BRD4(1) [1]: Active | Cell Proliferation activity (IC50 <30 μM) [2]: Active | IL-6 activity (IC50 <30 μM) (hIL-6 mRNA): Active | melting point: 165 to 167 °C | FRET activity (IC50 <30 μM) BRD2(2) [3]: Active

COc1cc(Nc2nn(Cc3ccccc3)c(=O)c3ccccc23)cc(OC)c1OC [Example 171, 2-Benzyl-4-(3,4,5-trimethoxyphenylamino)-2H-phthalazin-1-one]
c-myc activity (IC50 <30 μM) (c-myc): Active | FRET activity (IC50 <30 μM) BRD4(1) [1]: Active | Cell Proliferation activity (IC50 <30 μM) [2]: Active | IL-6 activity (IC50 <30 μM) (hIL-6 mRNA): Active | melting point: 206 to 207 °C | FRET activity (IC50 <30 μM) BRD2(2) [3]: Active

COc1cc(Nc2cn(Cc3ccccc3)c(=O)c3ccccc23)cc(OC)c1OC [Example 172, 2-Benzyl-4-((3,4,5-trimethoxyphenyl)amino)isoquinolin-1(2H)-one]
c-myc activity (IC50 <30 μM) (c-myc): Not Active | FRET activity (IC50 <30 μM) BRD4(1) [1]: Active | Cell Proliferation activity (IC50 <30 μM) [2]: Active | IL-6 activity (IC50 <30 μM) (hIL-6 mRNA): Active | melting point: 162 to 164 °C | FRET activity (IC50 <30 μM) BRD2(2) [3]: Active

Cc1noc(C)c1-c1cn(Cc2ccccc2)c(=O)c2cccnc12 [Example 173, 6-Benzyl-8-(3,5-dimethylisoxazol-4-yl)-1,6-naphthyridin-5(6H)-one]
FRET activity (IC50 <30 μM) BRD4(1) [1]: Active | melting point: 192 to 195 °C | FRET activity (IC50 <30 μM) BRD2(2) [3]: Active

Cc1noc(C)c1-c1cn(Cc2ccccc2)c(=O)c2ncccc12 [Example 174, 7-Benzyl-5-(3,5-dimethylisoxazol-4-yl)-1,7-naphthyridin-8(7H)-one]
FRET activity (IC50 <30 μM) BRD4(1) [1]: Active | melting point: 168 to 170 °C | FRET activity (IC50 <30 μM) BRD2(2) [3]: Active

Cc1noc(C)c1-c1cn(Cc2ccccc2)c(=O)c2cnccc12 [Example 175, 2-Benzyl-4-(3,5-dimethylisoxazol-4-yl)-2,7-naphthyridin-1(2H)-one]
FRET activity (IC50 <30 μM) BRD4(1) [1]: Active | melting point: 174 to 177 °C | FRET activity (IC50 <30 μM) BRD2(2) [3]: Active

Cc1noc(C)c1-c1cn(Cc2ccccc2)c(=O)c2ccncc12 [Example 176, 2-Benzyl-4-(3,5-dimethylisoxazol-4-yl)-2,6-naphthyridin-1(2H)-one]
FRET activity (IC50 <30 μM) BRD4(1) [1]: Active | melting point: 159 to 161 °C | FRET activity (IC50 <30 μM) BRD2(2) [3]: Active

Cc1noc(C)c1-c1cc(N)c(=O)n(Cc2cccc3[nH]ccc23)c1 [Example 247, 1-((1H-Indol-4-yl)methyl)-3-amino-5-(3,5-dimethylisoxazol-4-yl)pyridin-2(1H)-one]
c-myc activity (IC50 <30 μM) (c-myc): Active | FRET activity (IC50 <30 μM) BRD4(1) [1]: Active | Cell Proliferation activity (IC50 <30 μM) [2]: Active | IL-17 activity (IC50 < 30 μM) (hIL-17 mRNA): Active | IL-6 activity (IC50 <30 μM) (hIL-6 mRNA): Active

Cc1noc(C)c1-c1cc(N)c(=O)n(Cc2cccc3[nH]cc(C)c23)c1 [Example 271, 3-Amino-5-(3,5-dimethylisoxazol-4-yl)-1-((3-methyl-1H-indol-4-yl)methyl)pyridin-2(1H)-one]
c-myc activity (IC50 <30 μM) (c-myc): Active | FRET activity (IC50 <30 μM) BRD4(1) [1]: Active | Cell Proliferation activity (IC50 <30 μM) [2]: Active | IL-17 activity (IC50 < 30 μM) (hIL-17 mRNA): Active | IL-6 activity (IC50 <30 μM) (hIL-6 mRNA): Active
